From patent publication US8273378B2, “Dialysis solutions containing pyrophosphates” (Baxter International, Inc., priority 2007, dated 2012)
Read-outs that look alike come from different tables or passages of the source.

Conditions: for stability of pyrophosphate on storage: 1 week at 40° C.; for stability of pyrophosphate on storage / loss of pyrophosphate during sterilization: all buffers; for change in the pH of the solutions: after sterilization and after storage for a week at 40° C.; for loss of pyrophosphate during sterilization: pH 6 and lower; for Recoveries: unsterilized
Method: Introduction: This study was designed to evaluate the stability of pyrophosphate salts with different buffers over a pH range from 4 to 10 during steam sterilization and after storage at 40° C. Two pyrophosphate salts and four buffers were obtained for the study. TRIS was added to all solutions as a pH stabilizer. Two of the solutions were also prepared without TRIS for comparison. The pH of the solutions was adjusted from pH 4-10 with 1N HCl or 1N NaOH. The solutions were sterilized at 121° C. for 40 minutes. Pyrophosphate concentration was determined before and after sterilization and after storage. The pH was also determined after sterilization and after storage.
The salts tested were: • 1. Disodium Pyrophosphate (Na2H2P2O7) • 2. Tetrapotassium Pyrophosphate (K4P2O7)
The study was performed using the sodium and potassium salts of pyrophosphate with the buffers shown below. Solutions were not prepared with bicarbonate below pH 7 because bicarbonate will decompose at a lower pH. • 1. Sodium Lactate • 2. Sodium Bicarbonate • 3. Sodium Citrate • 4. Sodium Pyruvate
The concentrations of the solution components are shown below in Table 2.

Structure (SMILES)	stability of pyrophosphate on storage (pH 7-10)	stability of pyrophosphate on storage (pH 7-10, except lactate without TRIS at pH 7)	change in the pH of the solutions	loss of pyrophosphate during sterilization	change in pH after sterilization (all solutions)	pH change after storage (storage for up to two months at 40° C., all solutions)	Recoveries (all buffers at pH 6 and higher) [%]	Recoveries (buffers other than citrate, pH 4 and 5)	stability during sterilization (with bicarbonate at pH 9-10)	stability during sterilization (pH 9)	pH change after storage (storage for 1 week)
O=P([O-])([O-])OP(=O)(O)O.[Na+].[Na+] [Disodium Pyrophosphate]	remained unchanged	stable	no change in the pH	substantial loss of pyrophosphate	no change in pH	less than 0.1 pH unit	≥ 95	90-102%	most stable	–	–
O=P([O-])([O-])OP(=O)([O-])[O-].[K+].[K+].[K+].[K+] [Tetrapotassium Pyrophosphate]	–	–	no change in the pH	substantial loss of pyrophosphate	no change in pH	–	–	–	–	most stable	less than 0.1 pH unit
